Measured values taken from the supplement of paper PMC4862054.

How the values were obtained:
Settings in all cases: incubation time: 72 h
DU-4475 [1] = assay: drug sensitivity score (DSS), CellTox Green (DSS (AUC-based score)); higher = stronger drug effect (viability inhibition or cytotoxicity); extreme values may be limits of the assay
Procedure, shortened: (§1)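 Normalisation on every plate relied on 0.1 % DMSO and a positive kill control. The plates, 384-well format, held compound at 5 concentrations 10-fold apart across a compound-specific 10,000-fold range, and breast cancer cell lines in 20 µl suspension were incubated on them for 72 h before CellTox Green and then CellTiter-Glo readings. The drug sensitivity score derives from the area under the fitted dose-response curve.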

HCC1143 [2] = assay: as above
Procedure, shortened: as §1

Hs578T [3] = assay: as above
Procedure, shortened: as §1

MCF-10A [4] = assay: as above
Procedure, shortened: as §1

BT-549 = assay: drug sensitivity score (DSS), CellTiter-Glo (DSS (AUC-based score)); higher = stronger drug effect (viability inhibition or cytotoxicity); extreme values may be limits of the assay
Procedure, shortened: as §1

SK-BR-3 = assay: as above
Procedure, shortened: as §1

MFM-223 = assay: as above
Procedure, shortened: as §1

DU-4475 [5] = assay: as above
Procedure, shortened: as §1

HCC1143 [6] = assay: as above
Procedure, shortened: as §1

MDA-MB-436 = assay: as above
Procedure, shortened: as §1

HCC1937 = assay: as above
Procedure, shortened: as §1

Hs578T [7] = assay: as above
Procedure, shortened: as §1

HCC1599 = assay: as above
Procedure, shortened: as §1

BT-474 = assay: as above
Procedure, shortened: as §1

CAL-120 = assay: as above
Procedure, shortened: as §1

MDA-MB-468 = assay: as above
Procedure, shortened: as §1

HDQ-P1 = assay: as above
Procedure, shortened: as §1

MDA-MB-453 = assay: as above
Procedure, shortened: as §1

CAL-85-1 = assay: as above
Procedure, shortened: as §1

MDA-MB-231 = assay: as above
Procedure, shortened: as §1

MCF-10A [8] = assay: as above
Procedure, shortened: as §1

CAL-148 = assay: as above
Procedure, shortened: as §1

CAL-51 = assay: as above
Procedure, shortened: as §1

Measured: drug sensitivity score

CCc1c(C(=O)C(N)=O)c2c(OCC(=O)O)cccc2n1Cc1ccccc1 [Varespladib]
0: all assays above
